Several values for one entry are separate records, joined by “and”; a condition that tells them apart may be missing. Equal entries are not always repeated. Where two headings read alike, the source gives them in different places.
Legend:
[1] = tested on: representative EVs and RVs; assay type: cell-based
EV-A71 (strain BrCr) = assay type: cell-based, enterovirus A71
CV-B3 (strain Nancy) = assay type: cell-based, coxsackievirus B3
CV-A24 (strain Joseph) = assay type: cell-based, coxsackievirus A24
EV-D68 (strain Fermon) = assay type: cell-based, enterovirus D68
HRV-A2 = assay type: cell-based, human rhinovirus
HRV-B14 = assay type: cell-based, human rhinovirus
human SERT = target: T1, human SERT (Homo sapiens, UniProt P31645); assay type: cell-based
T1 construct: expressed in transfected cells; host or cells: HEK293 (gift of Dr. Hoener, F. Hoffmann-La Roche)

human DAT = target: T2, human DAT (Homo sapiens, UniProt Q01959); assay type: cell-based; conditions: for DAT, Mean (Figure 8B): Control = 100; for DAT, Mean as % (Figure 8B): Control = 100%
T2 construct: expressed in transfected cells; host or cells: HEK293 (gift of Dr. Hoener, F. Hoffmann-La Roche)

human NET = target: T3, human NET (Homo sapiens, UniProt P23975); assay type: cell-based; conditions: for NET, Mean (Figure 8B): Control = 100; for NET, Mean as % (Figure 8B): Control = 100%
T3 construct: expressed in transfected cells; host or cells: HEK293 (gift of Dr. Hoener, F. Hoffmann-La Roche)

in vitro [2] = conditions: human
in vitro [3] = conditions: human; remark: listed apart in the source
in vitro [4] = conditions: monkey

T1 sequence (P31645 whole entry): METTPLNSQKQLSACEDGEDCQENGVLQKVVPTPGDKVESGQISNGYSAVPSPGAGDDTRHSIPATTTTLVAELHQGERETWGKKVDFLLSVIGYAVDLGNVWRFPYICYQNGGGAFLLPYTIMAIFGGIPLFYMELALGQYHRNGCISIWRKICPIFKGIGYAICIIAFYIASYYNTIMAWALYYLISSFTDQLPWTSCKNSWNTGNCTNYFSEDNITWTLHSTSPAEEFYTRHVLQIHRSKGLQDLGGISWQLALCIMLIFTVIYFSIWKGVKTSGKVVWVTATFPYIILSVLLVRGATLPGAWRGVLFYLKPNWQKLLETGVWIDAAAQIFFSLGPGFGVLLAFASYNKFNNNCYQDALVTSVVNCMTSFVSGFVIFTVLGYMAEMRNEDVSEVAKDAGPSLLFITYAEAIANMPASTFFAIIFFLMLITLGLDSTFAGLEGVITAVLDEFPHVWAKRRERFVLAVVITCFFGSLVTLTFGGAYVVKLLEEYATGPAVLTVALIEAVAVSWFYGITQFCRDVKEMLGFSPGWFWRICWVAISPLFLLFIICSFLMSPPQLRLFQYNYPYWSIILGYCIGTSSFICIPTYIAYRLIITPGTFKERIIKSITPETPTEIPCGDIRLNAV
T2 sequence (Q01959 whole entry): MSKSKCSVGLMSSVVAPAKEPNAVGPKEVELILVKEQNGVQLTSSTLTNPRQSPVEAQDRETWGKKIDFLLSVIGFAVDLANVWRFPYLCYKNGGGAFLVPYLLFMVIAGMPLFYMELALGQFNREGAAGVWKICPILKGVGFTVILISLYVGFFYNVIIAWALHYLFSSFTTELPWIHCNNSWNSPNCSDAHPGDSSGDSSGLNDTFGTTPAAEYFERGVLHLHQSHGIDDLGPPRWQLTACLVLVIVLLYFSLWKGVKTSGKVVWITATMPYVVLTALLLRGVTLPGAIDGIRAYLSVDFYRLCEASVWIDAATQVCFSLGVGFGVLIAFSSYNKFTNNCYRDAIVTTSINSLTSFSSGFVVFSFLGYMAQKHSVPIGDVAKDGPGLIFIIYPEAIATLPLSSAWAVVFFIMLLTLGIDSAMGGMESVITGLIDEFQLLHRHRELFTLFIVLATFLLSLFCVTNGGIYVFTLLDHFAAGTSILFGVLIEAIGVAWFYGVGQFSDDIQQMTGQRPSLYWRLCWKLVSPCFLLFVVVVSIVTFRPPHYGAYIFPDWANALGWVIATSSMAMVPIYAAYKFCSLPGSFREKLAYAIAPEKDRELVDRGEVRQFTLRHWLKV
T3 sequence (P23975 whole entry): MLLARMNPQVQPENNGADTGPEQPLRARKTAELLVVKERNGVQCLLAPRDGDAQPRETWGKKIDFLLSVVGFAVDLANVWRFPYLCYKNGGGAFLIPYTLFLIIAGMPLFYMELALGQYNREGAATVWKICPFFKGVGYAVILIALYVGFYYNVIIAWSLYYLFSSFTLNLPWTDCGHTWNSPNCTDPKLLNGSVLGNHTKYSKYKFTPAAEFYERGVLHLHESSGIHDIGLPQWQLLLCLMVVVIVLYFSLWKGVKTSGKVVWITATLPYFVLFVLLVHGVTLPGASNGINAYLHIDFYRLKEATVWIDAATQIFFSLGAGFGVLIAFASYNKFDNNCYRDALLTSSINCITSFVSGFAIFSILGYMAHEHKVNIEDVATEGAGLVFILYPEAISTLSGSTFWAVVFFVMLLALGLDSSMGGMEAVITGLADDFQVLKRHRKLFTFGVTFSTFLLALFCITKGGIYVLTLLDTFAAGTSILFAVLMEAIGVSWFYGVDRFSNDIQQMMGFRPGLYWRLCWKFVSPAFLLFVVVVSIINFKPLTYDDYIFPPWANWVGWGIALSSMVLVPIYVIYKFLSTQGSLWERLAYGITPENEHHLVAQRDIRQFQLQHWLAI

SMILES: O=C(c1ccco1)N(Cc1ccc(C(F)(F)F)cc1)c1ccccc1 [Compound 19d, N-phenyl-N-(4-(trifluoromethyl)benzyl)furan-2-carboxamide]
- inhibition of contemporary/clinical isolates of EV-A71, CV-A24v and EV-D68 (in words) [1]: inhibited all clinical isolates of EV-A71, CV-A24v, and EV-D68 tested
- spectrum of antiviral activity (in words) [1]: inhibited all representative EVs and RVs
- virus titer, TCID50/ml (Figure 2A) (EV-A71 (strain BrCr); compound concentration 10 µM): 316.228 TCID50/ml
- virus titer, TCID50/ml (Figure 2A) (EV-A71 (strain BrCr); compound concentration 30 µM): 316.228 TCID50/ml
- virus titer, TCID50/ml (Figure 2A) (EV-A71 (strain BrCr); compound concentration 100 µM): 316.228 TCID50/ml
- virus titer, TCID50/ml (Figure 2A) (EV-A71 (strain BrCr); compound concentration 150 µM): 316.228 TCID50/ml
- virus titer, TCID50/ml (Figure 2A) (CV-B3 (strain Nancy); compound concentration 10 µM): 2187.76 TCID50/ml and 1625.6 TCID50/ml
- virus titer, TCID50/ml (Figure 2A) (CV-B3 (strain Nancy); compound concentration 30 µM): 2187.76 TCID50/ml and 1479.11 TCID50/ml
- virus titer, TCID50/ml (Figure 2A) (CV-A24 (strain Joseph); compound concentration 10 µM): 316.228 TCID50/ml
- virus titer, TCID50/ml (Figure 2A) (CV-A24 (strain Joseph); compound concentration 30 µM): 316.228 TCID50/ml
- virus titer, TCID50/ml (Figure 2A) (CV-A24 (strain Joseph); compound concentration 100 µM): 316.228 TCID50/ml
- virus titer, TCID50/ml (Figure 2A) (CV-A24 (strain Joseph); compound concentration 150 µM): 316.228 TCID50/ml
- virus titer, TCID50/ml (Figure 2A) (EV-D68 (strain Fermon); compound concentration 0.01 µM): 6000000 TCID50/ml and 4677352 TCID50/ml and 3162278 TCID50/ml
- virus titer, TCID50/ml (Figure 2A) (EV-D68 (strain Fermon); compound concentration 0.1 µM): 5888437 TCID50/ml and 6000000 TCID50/ml and 3162278 TCID50/ml
- virus titer, TCID50/ml (Figure 2A) (EV-D68 (strain Fermon); compound concentration 0.3 µM): 6000000 TCID50/ml and 3548134 TCID50/ml
- virus titer, TCID50/ml (Figure 2A) (EV-D68 (strain Fermon); compound concentration 10 µM): 31622.8 TCID50/ml and 21379.6 TCID50/ml and 35481.3 TCID50/ml
- virus titer, TCID50/ml (Figure 2A) (HRV-A2; compound concentration 0.01 µM): 354813 TCID50/ml
- virus titer, TCID50/ml (Figure 2A) (HRV-A2; compound concentration 1 µM): 169824 TCID50/ml and 188844 TCID50/ml
- virus titer, TCID50/ml (Figure 2A) (HRV-A2; compound concentration 3 µM): 354813 TCID50/ml and 588844 TCID50/ml
- virus titer, TCID50/ml (Figure 2A) (HRV-A2; compound concentration 30 µM): 1316.23 TCID50/ml and 1316 TCID50/ml
- virus titer, TCID50/ml (Figure 2A) (HRV-B14; compound concentration 0.001 µM): 13548130 TCID50/ml and 11698240 TCID50/ml
- virus titer, TCID50/ml (Figure 2A) (HRV-B14; compound concentration 0.01 µM): 16982410 TCID50/ml and 30000000 TCID50/ml and 31612280 TCID50/ml
- virus titer, TCID50/ml (Figure 2A) (HRV-B14; compound concentration 0.1 µM): 13548130 TCID50/ml and 11698240 TCID50/ml
- virus titer, TCID50/ml (Figure 2A) (HRV-B14; compound concentration 0.3 µM): 13548130 TCID50/ml and 11698240 TCID50/ml
- virus titer, TCID50/ml (Figure 2A) (HRV-B14; compound concentration 1 µM): 348134 TCID50/ml and 316228 TCID50/ml and 354813 TCID50/ml
- SERT, Mean (Figure 8B) (human SERT; 1µM, Control = 100.00): 104.62
- SERT, Mean as % (Figure 8B) (human SERT; 1µM, Control = 100%): 105%
- SERT, Mean (Figure 8B) (human SERT; 100µM): 107.21
- SERT, Mean as % (Figure 8B) (human SERT; 100µM): 107%
- inhibition of SERT-mediated uptake (in words) (human SERT; HEK293 cells expressing human SERT, 1 and 100 μM): neither 12a, 19b, 19d, nor the combined compound 12b inhibited
- DAT, Mean (Figure 8B) (human DAT; 1µM): 99.9783
- DAT, Mean as % (Figure 8B) (human DAT; 1µM): 76%
- DAT, Mean (Figure 8B) (human DAT; 100µM): 90.1191
- DAT, Mean as % (Figure 8B) (human DAT; 100µM): 90%
- inhibition of DAT function (in words) (human DAT; HEK293 cells expressing human DAT, 1 μM or 100 μM): neither 12a, 19b, 19d, nor the combined compound 12b inhibited
- NET, Mean (Figure 8B) (human NET; 1µM): 125.873
- NET, Mean as % (Figure 8B) (human NET; 1µM): 126%
- NET, Mean (Figure 8B) (human NET; 100µM): 118.011
- NET, Mean as % (Figure 8B) (human NET; 100µM): 118%
- inhibition of NET function (in words) (human NET; HEK293 cells expressing human NET, 1 μM or 100 μM): neither 12a, 19b, 19d, nor the combined compound 12b inhibited
- cytotoxicity (in words) (HeLa R19 cells): very minimal cytotoxicity
- CC50 (in vitro [2]; CC50 Average): > 30 µM
- CC50 (in vitro [2]; CC50 HelaR19 Average): 93.7 µM
- CC50 (in vitro [2]; Exp 1 CC50): > 30 µM
- CC50 (in vitro [2]; Exp 1 CC50 HelaR19): 92.3 µM
- CC50 (in vitro [2]; Exp2 CC50): > 30 µM
- CC50 (in vitro [2]; Exp 2 CC50 HelaR19): 95 µM
- CC50 (in vitro [3]; CC50 Hap1 Average): 97.8 µM
- CC50 (in vitro [3]; Exp 1 CC50 Hap1): 97.5 µM
- CC50 (in vitro [3]; Exp 2 CC50 Hap1): 98.1 µM
- CC50 (in vitro [4]; CC50): 92.6 ± 1.51 µM
- CC50 (in vitro [4]; CC50 BGM Average): 92.6 µM
- CC50 (in vitro [4]; Exp 1 CC50 BGM): 91.1 µM
- CC50 (in vitro [4]; Exp 2 CC50 BGM): 94.1 µM
